Data published in patent US20060035938A1, “2-Pyridone derivatives as inhibitors of neutrophile elastase” (priority 2002, published 2006).

The compounds below were run against T1, Human Neutrophil Elastase (HNE) (Homo sapiens, UniProt P08246) (assay: Human Neutrophil Elastase Quenched-FRET Assay). Details: read-out: Inhibition of Human Neutrophil Elastase IC50.
T1 construct: Human Neutrophil Elastase (HNE) purified from serum; purchased Calbiochem 324681; host or cells: purified from human serum (so in the source); not recombinant
T1 sequence (P08246 30-267): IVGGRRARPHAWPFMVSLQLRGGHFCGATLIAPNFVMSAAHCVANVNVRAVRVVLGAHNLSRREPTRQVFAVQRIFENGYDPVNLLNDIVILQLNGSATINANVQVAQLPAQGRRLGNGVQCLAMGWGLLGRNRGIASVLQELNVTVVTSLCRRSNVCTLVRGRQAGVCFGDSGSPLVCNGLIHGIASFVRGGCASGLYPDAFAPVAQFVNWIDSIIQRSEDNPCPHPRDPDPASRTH
Assay type: biochemical
Experimental: Human Neutrophil Elastase Quenched-FRET Assay
The assay uses Human Neutrophil Elastase (HNE) purified from serum (Calbiochem art. 324681; Ref. Baugh, R J. et al., 1976, Biochemistry. 15, 836-841). HNB was stored in 50 mM NaOAc, 200 mM NaCl, pH 5.5 with added 30% glycerol at −20° C. The protease substrate used was Elastase Substrate V Fluorogenic, MeOSuc-AAPV-AMC (Calbiochem art. 324740; Ref. Castillo, M. J. et al., 1979, Anal. Biochem. 99, 53-64). The substrate was stored in DMSO at −20° C. The assay additions were as follows: Test compounds and controls were added to black 96-well flat-bottom plates (Greiner 655076), 1 μL in 100% DMSO, followed by 30 μL HNE in assay buffer with 0.01% TritonX-100. The assay buffer constitution was: 100 mM Tris (pH 7.5) and 500 mM NaCl. The enzyme and the compounds were incubated at room temperature for 15 minutes. Then 30 μl substrate in assay buffer was added The assay was stopped after 30 minutes incubation at room temperature by adding 60 μl stop solution (140 mM acetic acid, 200 mM sodium monochloroacetate, 60 mM sodium acetate, pH 4.3). Fluorescence was measured on a Wallac 1420 Victor 2 instrument at settings: Exitation 380 nm, Emission 460 nm. IC50 values were determined using xlfit curve fitting using model 205.

Structure (SMILES)	IC50 [nM]
COc1ccc(CNC(=O)c2ccc(C)n(-c3cccc(Br)c3)c2=O)cc1 [1-(3-Bromophenyl)-N-(4-methoxybenzyl)-6-methyl-2-oxo-1,2-dihydropyridine-3-carboxamide]	353
COc1cccc(CNC(=O)c2ccc(C)n(-c3cccc(C(F)(F)F)c3)c2=O)c1OC [N-(2,3-Dimethoxybenzyl)-6-methyl-2-oxo-1-[3-(trifluoromethyl)phenyl]-1,2-dihydropyridine-3-carboxamide]	701
O=C(NCc1ccc2c(c1)CCO2)c1c[nH]c(=O)n(-c2cccc(C(F)(F)F)c2)c1=O [N-(2,3-Dihydro-1-benzofuran-5-ylmethyl)-2,4-dioxo-3-[3-(trifluoromethyl)phenyl]-1,2,3,4-tetrahydropyrimidine-5-carboxamide]	2030
Cc1cc(CNC(=O)c2ccc(C)n(-c3cccc(C(F)(F)F)c3)c2=O)no1 [6-Methyl-N-[(5-methylisoxazol-3-yl)methyl]-2-oxo-1-[3-(trifluoromethyl)phenyl]-1,2-dihydropyridine-3-carboxamide]	318
